In US11656221B2, “Methods to identify modulators of actin-binding proteins” (Regents of the University of Minnesota, priority 2019, dated 2023):
“Also recorded” adds a separate entry of the source.

Columns and labels:
[1] = target: T1, ternary complex consisting of GFP-ABD-L253P, Lifeact-mCherry, and actin (Homo sapiens, UniProt O15020, L253P); assay: Primary live-cell time-resolved FRET assay (GFP-ABD-L253P plus Lifeact-mCherry); assay type: cell-based; conditions: 12-point concentration response 0.01 to 30 μM, 1536-well plates, average of 3 plates; read-out: EC50 of FRET reduction
T1 construct: L252P β-III-spectrin (human) ABD residues 1-284; expressed in transfected cells; host or cells: HEK293-6E, pTT5 vector, transient
T1 sequence (O15020 1-284 L253P, one chain of several): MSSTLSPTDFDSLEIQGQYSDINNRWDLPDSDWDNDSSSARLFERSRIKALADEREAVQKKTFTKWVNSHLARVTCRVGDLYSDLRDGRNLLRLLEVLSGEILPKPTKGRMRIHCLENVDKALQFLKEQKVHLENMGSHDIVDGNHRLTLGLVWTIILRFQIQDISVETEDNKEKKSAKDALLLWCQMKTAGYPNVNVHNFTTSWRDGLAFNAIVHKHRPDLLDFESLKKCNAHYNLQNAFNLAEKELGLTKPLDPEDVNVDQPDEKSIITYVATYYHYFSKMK

[2] = target: T2, ABD-L253P (L253P β-III-spectrin ABD) binding to F-actin (Homo sapiens, UniProt O15020, L253P); assay: F-actin and ABD co-sedimentation assay; conditions: 3 μM, 1 μM ABD, 1 μM F-actin
T2 construct: His-SUMO (cleaved yes); made in house; host or cells: E. coli BL21(DE3), pE-SUMOpro; actin from rabbit psoas muscle
T2 sequence (O15020 1-284 L253P): as the sequence (O15020 1-284 L253P, one chain of several) above
Experimental: Actin was purified from acetone powder derived from the psoas muscle of New Zealand white rabbit (Oryctolagus cuniculus). Filamentous (F)-actin was stored for up to 3 days on ice before use in binding assays. Within an hour of the binding assay, the F-actin was clarified at 100,000×g at 4° C. for 10 min prior to setting up binding assays. The L253P β-III-spectrin ABD was expressed in E. coli BL21(DE3) (Novagen). The ABD was purified and the His-SUMO tag proteolytically removed, as previously described, except size-exclusion chromatography was not performed due to the high purity of the ABD protein. Lifeact-mCherry protein was similarly prepared. A Bradford assay was performed to determine clarified F-actin and ABD protein concentrations.
F-actin and ABD binding assays were performed as previously described. In brief, binding assays used 1 μM ABD protein, 1 μM F-actin and 1-50 μM compound (as indicated) or DMSO control for a total reaction volume of 60 μL in F-buffer containing 10 mM Tris, pH 7.5, 150 mM NaCl, 0.5 mM ATP, 2 mM MgCl2, and 1 mM DTT. Following 30 min incubation at room temperature (21° C.). F-actin was pelleted using centrifugation at 100,000×g at 25° C. for 30 min. Unbound ABD in the supernatant was measured following SDS-PAGE and Coomassie blue staining in accord. In addition, control co-sedimentations assays that lacked actin were performed to test if compounds cause ABD aggregation. […] Amount of mCherry was determined by acquiring fluorescence spectrum peak intensity at ˜600 nm using a spectral unmixing plate reader (Fluorescence Innovations, Inc) equipped with a 532 nm laser (Laserglow Technologies, Ontario, Canada) for excitation, 532 nm longpass filter for emission, and PMT for emission detection. The fraction of Lifeact-mCherry bound to F-actin was determined by subtracting from one the fraction of supernatant fluorescence intensity relative to the no-actin control sample, using the following equation: […]

HEK293-6E cells = assay: Trypan blue cell viability assay; assay type: cell-based; conditions: 3 μM, 3 hrs
Experimental: HEK293-6E cell viability was measured using trypan blue (0.03%) staining and a Countess Automated Cell counter (Invitrogen). Non-transfected HEK293-6E cells were spun at 100×g for 5 min at 21° C., and resuspended in 10 mL of PBS. The centrifugation and resuspension were repeated twice more. Final cell concentration was 1×10^6 cells/mL. Cells were incubated with 2% DMSO, or 3-50 μM compound (as indicated) for 3 hrs at room temperature (21° C.). After addition of 100 μL of 0.06% trypan blue solution in PBS, 10 μL was loaded on a slide and injected into the cell counter, and cell viability was measured.

ABD-L253P = target: T3, ABD-L253P (Homo sapiens, UniProt O15020, L253P); assay: Sedimentation of ABD L253P without actin (aggregation); conditions: 1.6 μM
T3 construct: His-SUMO (cleaved yes); made in house; host or cells: E. coli BL21(DE3), pE-SUMOpro
T3 sequence (O15020 1-284 L253P): as the sequence (O15020 1-284 L253P, one chain of several) above
Experimental: F-actin and ABD binding assays were performed as previously described. In brief, binding assays used 1 μM ABD protein, 1 μM F-actin and 1-50 μM compound (as indicated) or DMSO control for a total reaction volume of 60 μL in F-buffer containing 10 mM Tris, pH 7.5, 150 mM NaCl, 0.5 mM ATP, 2 mM MgCl2, and 1 mM DTT. Following 30 min incubation at room temperature (21° C.). F-actin was pelleted using centrifugation at 100,000×g at 25° C. for 30 min. Unbound ABD in the supernatant was measured following SDS-PAGE and Coomassie blue staining in accord. In addition, control co-sedimentations assays that lacked actin were performed to test if compounds cause ABD aggregation. F-actin and Lifeact-mCherry binding assays were undertaken with 2 μM Lifeact-mCherry, 30 μM F-actin and 1-50 μM compound (as indicated) or DMSO control for a total reaction volume of 80 μL in F-buffer. For a no-actin binding control, an assay sample with no F-actin was also set up. Binding reactions were allowed to reach equilibrium at room temperature (21° C.) for 30 min and then F-actin was pelleted by centrifugation at 100,000×g at 25° C. for 30 min. The amount of unbound Lifeact-mCherry was sampled by loading 7 μL of spin supernatant on a low volume black bottom 384-well plate (Greiner). Amount of mCherry was determined by acquiring fluorescence spectrum peak intensity at ˜600 nm using a spectral unmixing plate reader (Fluorescence Innovations, Inc) equipped with a 532 nm laser (Laserglow Technologies, Ontario, Canada) for excitation, 532 nm longpass filter for emission, and PMT for emission detection. The fraction of Lifeact-mCherry bound to F-actin was determined by subtracting from one the fraction of supernatant fluorescence intensity relative to the no-actin control sample, using the following equation: […]
In addition to a reduction in cell viability, the primary and counter screen may be sensitive to compounds that promote ABD-L253P protein aggregation. […] Our ABD-L253P to actin co-sedimentation assay is unlikely to be sensitive to ABD aggregation, as it is set up to monitor maximal sedimentation of ABD-L253P with actin at ˜90% ABD-L253P co-sedimenting. To directly measure the impact of 10 μM Hit compounds on ABD aggregation, we repeated the ABD-actin co-sedimentation without actin present.

CO[C@H]1C[C@H](CC[C@H](C)[C@H](O)[C@H](C)[C@H]2OC(=O)/C=C/C(C)=C/C[C@H](O)C[C@@H]3C=CC[C@@H](C[C@H](OC)[C@@H](C)[C@@H](O)C[C@@H](O)[C@H](C)[C@@H]([C@@H](C)[C@@H](O)[C@@H](C)CC[C@H]4C[C@H](OC)C[C@H](C)O4)OC(=O)/C=C/C(C)=C/C[C@H](O)C[C@@H]4C=CC[C@@H](C[C@H](OC)[C@@H](C)[C@@H](O)C[C@@H](O)[C@@H]2C)O4)O3)O[C@@H](C)C1 [swinholide A]
EC50 [1]: 264 nM
effect on ABD-L253P binding to actin [2]: did reduce; also recorded: ablation
effect on ABD-L253P binding to actin ([2]; listed as swiholide A): reduce ABD-L253P binding to actin
effect on HEK293-6E cell viability (HEK293-6E cells): did not significantly alter and not
ABD sedimentation without actin (ABD-L253P): does not alter ABD sedimentation
